US10188612B2, “Pharmaceutical compositions for inhalation” (VECTURA LIMITED, priority 2000, dated 2019)

Test: Standard dissolution test (sintered glass disc over stirred reservoir of deionised water)
Format: physicochemical
Settings: FIG. 2
Procedure: The samples were analysed in a Cecil Aquarius CE7200 ultraviolet spectrophotometer at a wavelength of 200 nm. The concentration of the samples was calculated with a previously prepared calibration graph and the concentration versus time was plotted.
The apparatus used is shown in FIG. 1 and comprises a 195 cm^3 reservoir (1) filled with deionised water (2) and having an inlet port (3) and an outlet port (4). A sintered glass disc (5) of approximately 50 mm diameter and 3 mm depth occupies an opening at the top of the reservoir (1) and sits horizontally in contact with the water (2). The water in the reservoir is stirred by a magnetic stirrer (6).
A known mass of approximately 1 mg of the formulation (7) to be tested is placed on the sinter and a timer is started. At various times, 1 cm^3 samples of the water are removed from the reservoir and are immediately replaced with 1 cm^3 deionised water to maintain the volume in the reservoir. The concentration of the active substance in the 1 cm^3 samples is determined by a suitable method.

C[N+]1(C)CCC(OC(=O)C(O)(c2ccccc2)C2CCCC2)C1 (centres unmarked) [glycopyrrolate]
time at which the maximum concentration is achieved: 10 min
concentration of active substance in the reservoir at the first time point (at 5 minutes, UV at 200 nm): greater than 10 mg/l
